For the test, the target named is T1, SARS2 protease (Severe acute respiratory syndrome coronavirus 2, UniProt P0DTD1).
T1 construct: SARS2 protease was added to a final concentration of 30 nM
Description: SARS-CoV-2 protease inhibition assay (SARS2 FRET protease assay). It counts as biochemical. The following applies: IC50 (μM), SARS2 protease 30 nM, peptide substrate 1.3 μM, 120 minutes at 37° C., compounds 20 μM to 0.075 nM.

26 molecules from US20240398757A1 (COCRYSTAL PHARMA, INC., priority 2022, published 2024) can be followed below.

For the molecule `CCCC[C@H](NC(=O)O[C@H](c1ccccc1)C(F)(F)c1cccc(F)c1)C(=O)N[C@@H](C[C@@H]1CCNC1=O)C(=O)C(=O)NCC` [Compound A284, (R)-2,2-difluoro-2-(3-fluorophenyl)-1-phenylethyl ((S)-1-(((S)-4-(ethylamino)-3,4-dioxo-1-((S)-2-oxopyrrolidin-3-yl)butan-2-yl)amino)-1-oxohexan-2-yl)carbamate], the concentration for half-maximal inhibition (IC50) (as a rule, the concentration that inhibits the measured activity by half) stood at 0.008 µM.

`CCCC[C@H](NC(=O)OC(c1ccccc1)C(F)(F)c1cccc(Cl)c1)C(=O)N[C@@H](Cc1ccc[nH]c1=O)C(=O)C(=O)NC1CC1` (stereo partly drawn) [Compound A285, 2-(3-chlorophenyl)-2,2-difluoro-1-phenylethyl ((S)-1-(((S)-4-(cyclopropylamino)-3,4-dioxo-1-(2-oxo-1,2-dihydropyridin-3-yl)butan-2-yl)amino)-1-oxohexan-2-yl)carbamate] registered an IC50 of 1.3 µM.

With `O=C[C@H](C[C@@H]1CCNC1=O)NC(=O)[C@H](Cc1cccc(Cl)c1)NC(=O)OC(c1ccccc1)C(F)(F)c1cccc(Cl)c1` (some centres unmarked) [Compound A286], the half-maximal inhibitory concentration (IC50) amounted to 0.0001 µM.

Consider `CCNC(=O)C(=O)[C@H](C[C@@H]1CCNC1=O)NC(=O)[C@H](Cc1cccc(Cl)c1)NC(=O)OC(c1ccccc1)C(F)(F)c1cccc(Cl)c1` (some centres unmarked) [Compound A287], for which the IC50 stood at 1.06 µM.

Molecule `CC(C)C[C@H](NC(=O)O[C@@H](c1ccccc1)C(F)(F)c1cccc(C2CC2)c1)C(=O)N[C@@H](C[C@@H]1CCNC1=O)C(=O)C(=O)NC1CC1` [Compound A288] came in with a 50% inhibitory concentration (IC50) of 0.26 µM.

Turning to `CCCC[C@H](NC(=O)OC(c1ccccc1)C(F)(F)c1cccc(Cl)c1)C(=O)N[C@H](C=O)Cc1ccc[nH]c1=O` (stereo partly drawn) [Compound A292, 2-(3-chlorophenyl)-2,2-difluoro-1-phenylethyl ((S)-1-oxo-1-(((S)-1-oxo-3-(2-oxo-1,2-dihydropyridin-3-yl)propan-2-yl)amino)hexan-2-yl)carbamate], the IC50 came to 0.159 µM.

As for `CCOP(=O)(OCC)C(O)[C@H](C[C@@H]1CCNC1=O)NC(=O)[C@H](CC1CCCCC1)NC(=O)O[C@H](c1ccccc1)C(F)(F)c1cccc(Cl)c1` (some centres unmarked) [Compound A293], the IC50 came to 16.1 µM.

In the case of `CCCC[C@H](NC(=O)OC(c1ccccc1)C(F)(F)c1cccc(Cl)c1)C(=O)N[C@@H](C[C@@H]1CCNC1=O)C(=O)C(=O)NCCNCC` (some centres unmarked) [Compound A294], the IC50 was 0.486 µM.

Molecule `CCCC[C@H](NC(=O)O[C@@H](c1cccnc1)C(F)(F)c1cccc(Cl)c1)C(=O)N[C@@H](C[C@@H]1CCNC1=O)C(=O)C(=O)NC1CC1` [Compound A301] registered an IC50 of 0.0362 µM.

Consider `CCCC[C@H](NC(=O)O[C@@H](c1ccncc1)C(F)(F)c1cccc(Cl)c1)C(=O)N[C@@H](C[C@@H]1CCNC1=O)C(=O)C(=O)NC1CC1` [Compound A303], for which the half-maximal inhibitory concentration (IC50) is 0.055 µM.

Molecule `CCCC[C@H](NC(=O)OC(c1ccn(C)n1)C(F)(F)c1cccc(Cl)c1)C(=O)N[C@H](C=O)C[C@@H]1CCNC1=O` (some centres unmarked) [Compound A305] had an IC50 of 0.0004 µM.

Consider `CCCC[C@H](NC(=O)OC(c1ccccc1)C(F)(F)c1cccc(Cl)c1)C(=O)NC(CN1CCNC1=O)C(=O)C(=O)NC1CC1` (some centres unmarked) [Compound A306], for which the 50% inhibitory concentration (IC50) was found to be 4.41 µM.

For `CC(C)C[C@H](NC(=O)OC(c1ccccc1)C(F)(F)c1cccc(Cl)c1)C(=O)NC(CN1CCNC1=O)C(=O)C(=O)NC1CC1` (some centres unmarked) [Compound A307], the 50% inhibitory concentration (IC50) amounted to 4.44 µM.

In the case of `CC[C@@H](C)C[C@H](NC(=O)O[C@H](c1ccccc1)C(F)(F)c1cccc(Cl)c1)C(=O)N[C@@H](C[C@@H]1CCNC1=O)C(=O)C(=O)NC1CC1` [Compound A311], the IC50 was 0.181 µM.

For the molecule `CC[C@@H](C)C[C@H](NC(=O)O[C@@H](c1ccccc1)C(F)(F)c1cccc(Cl)c1)C(=O)N[C@@H](C[C@@H]1CCNC1=O)C(=O)C(=O)NC1CC1` [Compound A312], the IC50 was found to be 0.64 µM.

In turn, `CCCC[C@H](NC(=O)OC(c1ccn(C)n1)C(F)(F)c1cccc(Cl)c1)C(=O)N[C@@H](C[C@@H]1CCNC1=O)C(=O)C(=O)NCC` (some centres unmarked) [Compound A313] registered an IC50 of 0.139 µM.

In turn, `CC(C)C[C@H](NC(=O)OC(c1ccccc1)C(F)(F)c1cccc(C2CCC2)c1)C(=O)N[C@H](C=O)C[C@@H]1CCNC1=O` (some centres unmarked) [Compound A314] yielded an IC50 of 0.001 µM.

`CC(C)C[C@H](NC(=O)OC(c1ccccc1)C(F)(F)c1cccc(C2CCC2)c1)C(=O)N[C@@H](C[C@@H]1CCNC1=O)C(=O)C(=O)NC1CC1` (some centres unmarked) [Compound A315] yielded an IC50 of 0.051 µM.

On to `CC(C)C[C@H](NC(=O)O[C@@H](c1ccccc1)C(F)(F)c1cccc(Cl)c1)C(=O)N[C@@H](C[C@@H]1CCNC1=O)C(=O)C(=O)NC1CC1` [Compound A317], for which the midpoint of inhibition, the IC50, lay at 0.0004 µM.

`CCCC[C@H](NC(=O)OC(c1cnn(C)c1)C(F)(F)c1cccc(Cl)c1)C(=O)N[C@@H](C[C@@H]1CCNC1=O)C(=O)C(=O)NCC` (some centres unmarked) [Compound A319]: the IC50 stood at 0.001 µM.

`CCNC(=O)C(=O)[C@H](C[C@@H]1CCNC1=O)NC(=O)[C@@H](CC1(CC)CCC1)NC(=O)O[C@@H](c1ccccc1)C(F)(F)c1cccc(Cl)c1` [Compound A320] showed an IC50 of 0.0001 µM.

`CCNC(=O)C(=O)[C@H](C[C@@H]1CCNC1=O)NC(=O)[C@H](CC1(CC)CCC1)NC(=O)O[C@H](c1ccccc1)C(F)(F)c1cccc(Cl)c1` [Compound A322] had a half-inhibitory concentration (IC50) of 1.72 µM.

`CCNC(=O)C(=O)[C@H](C[C@@H]1CCNC1=O)NC(=O)[C@H](CC1(CC)CCC1)NC(=O)O[C@@H](c1ccccc1)C(F)(F)c1cccc(Cl)c1` [Compound A323] returned an IC50 of 3.84 µM.

`CCNC(=O)C(=O)[C@H](C[C@@H]1CCNC1=O)NC(=O)[C@@H](CC1(C)CCC1)NC(=O)O[C@@H](c1ccccc1)C(F)(F)c1cccc(Cl)c1` [Compound A324] gave an IC50 of 0.0003 µM.

Molecule `CCNC(=O)C(=O)[C@H](C[C@@H]1CCNC1=O)NC(=O)[C@H](CC1(C)CCC1)NC(=O)O[C@H](c1ccccc1)C(F)(F)c1cccc(Cl)c1` [Compound A326] gave an IC50 of 0.367 µM.

`CCNC(=O)C(=O)[C@H](C[C@@H]1CCNC1=O)NC(=O)[C@H](CC1(C)CCC1)NC(=O)O[C@@H](c1ccccc1)C(F)(F)c1cccc(Cl)c1` [Compound A327] gave an IC50 of 5.33 µM.
